From patent US8110544B2, “RasGAP derived peptide for selectively killing cancer cells” (Universite de Lausanne, priority 2003, dated 2012)

Legend:
NFκB activity = assay: NFκB firefly luciferase reporter assay in U2OS cells; assay type: cell-based, human; settings: 20 μM peptide or cisplatin, 20 hours
Method: U2OS Cells (1×10^5) were plated in 6 well plates and transfected with 1 μg of a firefly luciferase reporter plasmid for NFκB activity and 0.1 μg of a plasmid encoding the Renilla luciferase. The cells were treated one day later with the indicated concentrations of cisplatin in the absence or in the presence of 20 μM HV-TAT48-57 or TAT-RaSGAP317-326 peptides during 20 hours. The data represent the firefly luciferase activity normalized to the Renilla luciferase activity and expressed as fold increase of the basal NFκB activity obtained in control untreated cells. The results correspond to the mean±standard deviation of three independent determinations. Asterisks denote significant differences between the indicated conditions (**, p<0.01; ***, p<0.001).
U2OS cells were transfected with 1 μg of a firefly luciferase reporter plasmid for NFκB activity, 0.1 μg of a plasmid encoding the Renilla luciferase, 0.5 μg of a GFP-expressing plasmid (to label the transfected cells), 1 μg of a plasmid encoding IκBαΔN2 that inhibit the NFκB pathway or with 1 μg an empty pcDNA3 vector. The cells were incubated one day later with increasing concentrations of cisplatin in the presence of 20 μM HIV-TAT48-57 or 20 μM TAT-RasGAP317-326 for an additional 20 hour period. The cells were then lysed and the NFκB activity assessed as described in panel A, except that the results were expressed as fold increase of the NFκB activity detected in cells incubated with the control HV-TAT48-57 peptide.
Luciferase assay was performed using the Dual-Luciferase® Reporter Assay from Promega (cat. no E1910). […] The firefly luciferase activity was recorded by mixing 20 μl of the lysate with 25 μl of the LARII Reagent and the Renilla luciferase activity was recorded by adding to the previous mix 25 μl of the Stop & Glo Reagent. For each measurement, light emission was quantified during 12 seconds using a Lumat LB 9501 luminometer (Berthold Technologies, Zurich, Switzerland).

p38 MAPKs = assay: Western blot of phospho-p38 in U2OS cells; assay type: cell-based, human; settings: 20 μM peptide
Method: (§1) U2OS cells (2×10^5) were plated in 6 well plates and treated for the indicated periods of time with the indicated combinations of the HW-TAT48-57 or TAT-RasGAP317-326 peptides (at a 20 μM concentration) and cisplatin (at a 30 μM concentration). Positive controls for JNK and p38 activation were obtained following stimulation of the cells with 1 μg/ml anisomycine during 3 hours and with 0.5 M sorbitol for 30 min, respectively. The quantitations depicted under the Western blots were performed on the 12-hour bands and normalized against the positive controls. The results correspond to the mean±standard deviation of three independent experiments. […]

JNK = assay: Western blot of phospho-JNK in U2OS cells; assay type: cell-based, human; settings: 20 μM peptide
Method: as §1

HeLa cells [1] = assay: Apoptosis (pycnotic nuclei) of HeLa cells transfected with RasGAP constructs and treated with genotoxins; assay type: cell-based, human; settings: for potentiation of cisplatin-induced apoptosis in HeLa cells: transfected construct, 0.15 μM cisplatin, apoptosis scored 20 hours later
Method: HeLa cells (2×10^6) were plated in 10-cm-diameter Petri dishes, transfected with 1 μg of GFP-expressing plasmid (to label the transfected cells) together with 2 μg of an empty pcDNA3 plasmid or 2 μg of a pcDNA3 vector encoding fragment N2. One day following the transfection, the cells were incubated for 24 hours with the indicated concentrations of cisplatin, adriamycin or mitoxantrone. The number of GFP-positive cells displaying pycnotic nucleus was then scored.
HeLa cells were transfected as described in FIG. 1 with plasmids endoding the constructs described in FIG. 2A. HeLa cells were then treated or not with 0.15 μM cisplatin and the extent of apoptosis was determined 20 hours later. The results correspond to the mean±standard deviation of three independent determinations. Asterisks denote a significant difference between the cells treated with 0.15 μM cisplatin and the cells without treatment (**, p<0.01; ***, p<0.001).
HeLa and MCF-7 cells were maintained in RPMI 1640 (Sigma; cat. no 8758) containing 10% newborn calf serum (Sigma; cat. no N4637) at 37° C. and 5% CO2. U2OS cells were maintained in DMEM (Sigma; cat. no 5796) containing 15% foetal calf serum (Sigma; cat. no F7524) at 37° C. and 5% CO2. H-Meso-1 cells were maintained in RPMN 1640 containing 10% foetal calf serum at 37° C. and 5% CO2. […] After 8 hours at 37° C. and 5% CO2, the medium was replaced with fresh culture medium and the cells were further incubated for 16-24 hours before being analyzed.
Apoptosis was determined by scoring the number of cells displaying pycnotic nuclei. Nuclei of live cells were labeled with Hoechst 33342 (10 μg/ml final concentration) for about 5 minutes and the cells were then analyzed (at least 400 cells per condition) using an inverted Leica DMIRB microscope equipped with fluorescence and transmitted light optics. […] In this case, the extent of apoptosis was assessed in the transfected cells only. […]

HeLa cells [2] = settings: Yang and Widmann 2001; cited from earlier work

Molecule: N.N.[Cl][Pt][Cl] [cisplatin, reference compound]
- NFkB activation in U2OS cells (single agent) (NFκB activity): activated

Molecule: GRKKRRQRRR [HIV-TAT48-57, reference compound]
- activation of p38 MAPK pathway by peptide alone (p38 MAPKs): neither the control HIV-TAT48-57 peptide nor the TAT-RasGAP317-326 peptide activated these MAPK pathways
- activation of JNK pathway by peptide alone (JNK): neither the control HIV-TAT48-57 peptide nor the TAT-RasGAP317-326 peptide activated these MAPK pathways

Molecule: WMWVTNLRTD (listed as Homo sapiens) [317-326, 10 amino acid long peptide expressed from a transfected construct]
- potentiation of cisplatin-induced apoptosis in HeLa cells (HeLa cells [1]): potentiated the ability of cisplatin to kill HeLa cells

B1: SH2 domain: human RasGAP amino acids 158-277, expressed from plasmid SH2.dn3 (protein, UniProt P20936 158-277, looked up, fragment)
chain: SLDGPEYEEEEVAIPLTAPPTNQWYHGKLDRTIAEERLRQAGKSGSYLIRESDRRPGSFVLSFLSQMNVVNHFRIIAMCGDYYIGGRRFSSLSDLIGYYSHVSCLLKGEKLLYPVAPPEP
modifications: SH2 domain
notes: human RasGAP amino acids 158-277, expressed from plasmid SH2.dn3
- potentiation of cisplatin-induced apoptosis in HeLa cells (HeLa cells [1]): did not enhance the ability of cisplatin to kill HeLa cells

B2: fragment N2: human RasGAP amino acids 158 to 455, 36 kDa, expressed from plasmid N2.dn3 (protein, UniProt P20936 158-455, looked up, fragment)
chain: SLDGPEYEEEEVAIPLTAPPTNQWYHGKLDRTIAEERLRQAGKSGSYLIRESDRRPGSFVLSFLSQMNVVNHFRIIAMCGDYYIGGRRFSSLSDLIGYYSHVSCLLKGEKLLYPVAPPEPVEDRRRVRAILPYTKVPDTDEISFLKGDMFIVHNELEDGWMWVTNLRTDEQGLIVEDLVEEVGREEDPHEGKIWFHGKISKQEAYNLLMTVGQVCSFLVRPSDNTPGDYSLYFRTNENIQRFKICPTPNNQFMMGGRYYNSIGDIIDHYRKEQIVEGYYLKEPVPMQDQEQVLNDTVD
- sensitivity of HeLa cells towards the various drugs relative to control cells (HeLa cells [1]; HeLa cells expressing fragment N2 vs empty pcDNA3, cisplatin, adriamycin, mitoxantrone, 24 hours): at least 10 times
- ability of cisplatin to kill the HeLa tumor cell line (HeLa cells [2]): enhances the ability of cisplatin to kill the HeLa tumor cell line
